The values below come from US11613552B2, “Pharmaceutical agents, compositions, and methods relating thereto” (Alltech, Inc., priority 2017, dated 2023).

One assay deals with Lepr^db/db mice. The assay can be described thus: Glucose tolerance test in Lepr^db/db mice. It counts as in vivo, mouse. The method, then:
Male Lepr^db/db mice at 38 days of age were intraperitoneally (ip) injected daily with physiological saline ([…]) containing 0.2% DMSO, Compound #C, Compound #50, Compound #68, and/or Compound #43 (25 μg selenium or sulfur equivalents of each compound per kilogram body weight, diluted in sterile physiological saline) for periods ranging from 43-90 days. Body weights of the above treated mice were recorded daily using a balance and any visible abnormal animal gross morphology and walking behavior were monitored daily. After the treatments, animals were fasted overnight and then subjected to blood glucose or HbA1c assays, glucose tolerance tests or tissue collections.
For comparative studies of any potential anti-diabetic effects of Compounds #43, #69 and #70, male Lepr^db/db mice at 41 days of age were intraperitoneally (ip) injected daily with physiological saline ([…]) containing 0.2% DMSO, Compound #43, Compound #69, or Compound #70 (25 μg selenium of each compound per kilogram body weight, diluted in sterile physiological saline). After the treatments for 43 days, animals were fasted overnight and then subjected to blood glucose and glucose tolerance tests. After daily treatments of these compounds for 90 days, sera from these animals were collected and then subjected to blood HbA1c assays.
Glucose tolerance tests were performed as described previously (Li et al, Int J Biol Sci 2008; 4:29-36). Briefly, overnight-fasted Lepr^db/db mice after saline or compound treatments were injected intraperitoneally with 2 grams/kg body weight of 20% D-glucose. Blood glucose levels at time 0 (immediately before the injection of glucose), 0.25, 0.5, 1 and 2 hours after injection of glucose were determined using a glucometer with a maximum glucose measurement capacity of 600 mg/dL. Because of this, blood glucose levels over 600 mg/dL were counted as 600 mg/dL in the data analysis.

The next assay concerns Tau. To be noted: AD brains; cited from earlier work.
For assay [1], the system named is G6pc. In words: QRT-PCR of basal G6pc expression in AML-12 cells. It counts as cell-based, mouse. To be noted: 300 ppb selenium (3.8 μM), serum-free, 24 hr (FIG. 10A). How it is done: For RNA analysis of basal G6pc expression (without the presence of diabetic stimuli: 8-CPT/Dex), amplified AML-12 and HepG2 cells were cultured on 24-well plates (0.5-2×10^5 cells/well) overnight in 10% FBS ITS- and Dex-free DMEM/F12 media and 10% FBS EMEM media, respectively. These cells were rinsed twice with PBS to remove residual sera. Then, the PBS-washed HepG2 cells were treated without or with insulin or Compound #43 in serum-free EMEM media for 40 hr. In some experiments, the PBS-washed AML-12 cells were incubated without or with Compound #43 or other selenium compounds in serum-free DMEM/F12 media for 24 hours. In other experiments, amplified AML-12 cells were pretreated without or with Compound #43 (150 or 300 ppb) in 10% FBS but ITS/Dex-free DMEM/F12 media for 24 hr. After 24 hr treatment, AML-12 cells were washed twice with PBS (to remove any residual serum in the culture) and then treated with insulin, Compound #43 or both, in the serum-free DMEM/Dex media for 6 hr.
(§1) Total RNA from saline- or selenium compound-treated Lepr^db/db mice was isolated using a Qiagen RNAeasy RNA isolation kit according to the Manufacturer's protocol. Total RNA from cultured cells was isolated using Trizol (Invitrogen) according to the manufacturer's protocol, and then incubated with DNase I to remove any potential contaminating genomic DNA. RNA samples were subjected to real-time PCR (QRT-PCR) analysis using Applied-Bioscience's RT kit and predesigned Taqman probes (Invitrogen), as described previously (Lan et al EMBO J 2003). Data were normalized by Actin B (Actb) mRNA levels in each sample, and are presented as mean±SEM of 3-5 samples.

In another assay the test system is C2C12 cells. To be noted: each individually, mouse skeletal muscle myoblast C2C12 cells; cited from earlier work.
For a further assay, the system named is brain cells. To be noted: cited from earlier work.
Another assay deals with HepG2 cells. The assay can be described thus: Glucose production assay in HepG2 cells. To be noted: tested doses, serum-free glucose production media, 48 hr (FIG. 1). It counts as cell-based, human. The method, then: Equal numbers of Human HepG2 or rat H4IIE cells (1-1.5×10^5 cells/well) were seeded on 96 well plates in 10% FBS-containing media for 24 hr. Cells were then washed twice with PBS, and treated with various concentrations of compounds, metformin or insulin in 100 μl of glucose production media (glucose-free, phenol red-free DMEM media supplemented with 20 mM sodium lactate, 2 mM sodium pyruvate and 5 mM HEPES) at 37° C. for 24 hr (H4IIE cells only) or 48 hr (HepG2 cell only). Cells were also incubated with 0.24% DMSO (the maximal volume of DMSO solvent used in the experiments).
After the above treatments, 50 μl of culture media were collected, and subjected to glucose analysis using Molecular Probes Amplex Red glucose assay kit (Cat #A22189) according to the manufacturer's protocol. Cell numbers or viability in the culture plate after the above compound treatments were determined using Promega's CellTiter96® AQueous One Solution Cell Proliferation Assay kits, according to the manufacturer's protocol and instructions. In brief, after removing 50 μl of culture media for glucose assay, cells were incubated with AQueous One solution (25 μl stock solution and 50 μl prewarmed PBS/per well) at 37° C. for 1 hour, and the absorbance of OD490 nm in each sample was determined by the Bio-Tek microplate reader. Cell viability in culture wells were determined by the subtraction of OD490 nm in cultured cells with the OD490 nm in plain culture media (without seeding of cells). Glucose production in the culture cells were obtained by normalizing the glucose concentration in culture media by cell viability in each well. At least 3 samples per each treatment were examined for the above analysis. Data are presented as Mean±SEM of those samples. Experiments were repeated at least twice.
The half maximal inhibitory concentration (IC50 values) of Compound #43 or metformin for the inhibition of glucose production were determined using the ED50 Plus v1.0 online software.

The next assay has as its system Glut4. The assay can be described thus: QRT-PCR of Glut4 mRNA in livers of Lepr^db/db mice. It is filed as in vivo, mouse. To be noted: 25 μg selenium/kg ip daily, 52 days (FIG. 15). How it is done:
Male Lepr^db/db mice (C57BL/6J strain, purchased from The Jackson Laboratory) at postnatal day 38 were intraperitoneally injected daily with physiological saline ([…]) containing 0.2% DMSO, Compound #43, or Compound #50 (25 μg selenium of each compound per kilogram body weight, diluted in sterile physiological saline) for 52 days. After treatment, livers were collected and subjected to RNA analysis.
Total liver RNA from saline- or Compound #43-treated Lepr^db/db mice was isolated using a Qiagen RNAeasy RNA isolation kit according to the Manufacturer's protocol. Total RNA from cultured cells was isolated using Trizol (Invitrogen) according to the manufacturer's protocol, and then incubated with DNase I to remove any potential contaminating genomic DNA. RNA samples were subjected to real-time PCR analysis using Applied-Bioscience's RT kit and predesigned Taqman probes (Invitrogen), as described previously (Lan et al EMBO J 2003). Data were normalized by Actin B (Actb) mRNA levels in each sample and are presented as mean±SEM of 3-5 samples.

Assay [2] relates to G6pc. In words: QRT-PCR of G6pc mRNA in livers of Lepr^db/db mice. To be noted: 25 μg selenium/kg ip daily, 52 days (FIG. 9). It is filed as in vivo, mouse. How it is done: Male Lepr^db/db mice (C57BL/6J strain, purchased from The Jackson Laboratory) at 38-days of age were intraperitoneally injected daily with physiological saline ([…]) containing 0.2% DMSO, Compound #50, or Compound #43 (25 μg selenium equivalent of each compound per kilogram body weight, diluted in the sterile physiological saline) for 52 days. After the treatment, livers were collected and subjected RNA analysis.
as §1

On to `C[Se]C[C@H]1O[C@@H](n2cnc3c(N)ncnc32)[C@@H](O)C1O` (stereo partly shown) [Compound C, 5′-Methylselenoadenosine, reference compound], for which the “glucose tolerance (overall)” value in the assay on Lepr^db/db mice (25 μg selenium/kg ip daily 43 days from day 38, glucose 2 g/kg (FIG. 8A)) is reported as “did not improve glucose tolerance”. Further, the Tau hyperphosphorylation result in the assay with Tau was “can inhibit Tau hyperphosphorylation in AD brains”. In addition, in the assay on G6pc [1], the “effect on G6pc expression” value is recorded as “did not significantly inhibit G6pc expression”. Moreover, the “mitochondrial (MT) potential” value in the assay with C2C12 cells is “can enhance mitochondrial (MT) potential”. Besides, the “gluconeogenesis in brain cells” value in the assay on brain cells is reported as “can enhance gluconeogenesis in brain cells”. Besides, the “effect on glucose production in HepG2 cells” value (“effect on glucose production” below) in the assay with HepG2 cells is listed as “inhibited glucose production”.

Regarding `Nc1ncnc2c1ncn2[C@@H]1O[C@H](C[Se]CC[C@H](N)C(=O)O)C(O)C1O` (stereo partly shown) [Compound D, 5′-Selenoadenosyl homocysteine, reference compound], the Tau hyperphosphorylation result with Tau is “can inhibit Tau hyperphosphorylation in AD brains”. Further, the “effect on G6pc expression” value in the assay on G6pc [1] was “did not significantly inhibit G6pc expression”. For the same molecule, the “mitochondrial (MT) potential” value in the assay on C2C12 cells was “can enhance mitochondrial (MT) potential”. In the assay with HepG2 cells, the “effect on glucose production” value is reported as “inhibited glucose production”.

As for `C[Se]C[C@H]1O[C@@H](n2cnc3c(N)ncnc32)C2OC(=O)OC21` (stereo partly shown) [Compound #50, Adenosine, 5′-Se-methyl-5′-seleno-, cyclic 2′,3′-carbonate], in the assay on Lepr^db/db mice (FIG. 8A, 43 days treatment), the “blood glucose level at 2 hr after glucose injection” value is given as “significant decrease of glucose level”; the “blood glucose levels at 0.25, 0.5 and 1 hr after glucose injection” value is reported as “no obvious decrease”. For the same molecule, the “effect on Glut4 mRNA levels in the liver” value in the assay with Glut4 is listed as “numerically increased Glut4 mRNA levels”. Moreover, the “effect on G6pc expression” value with G6pc [1] was “did not significantly inhibit G6pc expression”. For the same molecule, the “effect on G6pc mRNA levels in the liver” value in the assay with G6pc [2] is “slightly, but not significantly, decreased”. Moreover, the “effect on glucose production” value in the assay on HepG2 cells is on record as “inhibited glucose production”.
